Columns and labels:
[1] = system: dopamine, norepinephrine, and serotonin receptors; settings: topical
[2] = system: local peripheral and generalized pain; experiment: Nuchal (BONATH) application of compounded opioids for pain relief in patients; settings: patients tapering off oral narcotics, nuchal delivery as only pain therapy
Source text: Previously described has is the “nuchal” (back of the neck at the hairline, or “BONATH”) application of triptans (Migraderm using sumatriptan) for migraine headache, tizanidine (Tizoderm) for cervical spasm and tension headache; and, apomorphine for the Parkinson's disease symptoms of tremor, rigidity, speech difficulties, and other “non-motor” symptoms.

[3] = system: free nerve endings; experiment: Onset of clinical effect of TPNA therapy; type: in vivo, human; settings: topical
[4] = after topical application in cold cream; cited from earlier work

| SMILES | effect on symptoms of neuropathic pain and other symptoms of nerve dysfunction [1] | narcotic withdrawal symptoms [2] | also measured |
| --- | --- | --- | --- |
| NCCc1ccc(O)c(O)c1 [dopamine] | treat symptoms of neuropathic pain | – | – |
| CN1CC[C@]23c4c5ccc(O)c4O[C@H]2[C@@H](O)C=C[C@H]3[C@H]1C5.O=S(=O)(O)O [morphine sulfate] | – | no significant narcotic withdrawal symptoms | – |
| CN1CCc2cccc3c2[C@H]1Cc1ccc(O)c(O)c1-3 [apomorphine] | treat symptoms of neuropathic pain | – | onset of clinical effect [3]: 10 to 15 min |
| COc1cccc(C2(O)CCCCC2CN(C)C)c1 (stereo not drawn) [tramadol] | – | no significant narcotic withdrawal symptoms | – |
| CN1CC[C@]23c4c5ccc(O)c4O[C@H]2[C@@H](O)C=C[C@H]3[C@H]1C5 [morphine] | – | – | morphine levels in blood or urine [4]: not detected |

From patent US20160058752A1, “TOPICAL […]-AFFECTIVE (TPNA) THERAPY FOR N[…]” (AFGIN PHARMA, LLC, priority 2014, published 2016)
